Measured values taken from patent publication US5565488A, “Oxalylamino-benzofuran- and benzothienyl-derivatives” (Bayer Aktiengesellschaft, priority 1994, dated 1996).

Experiments:
human PMN = assay: Inhibition of FMLP-stimulated production of superoxide radical anions; assay type: cell-based; details: Neutrophil, human neutrophils; for IC50: 4×10^-8 M FMLP
Procedure: 1. Preparation of human PMN
Blood was taken from healthy subjects by venous puncture and neutrophils were purified by dextran sedimentation and resuspended in the buffered medium.
2. Inhibition of FMLP-stimulated production of superoxide radical anions.
Neutrophils (2.5×10^5 ml^-1) were mixed with cytochrome C (1.2 mg/ml) in the wells of a microtitre plate. Compounds according to the invention were added in dimethyl sulphoxide (DMSO). Compound concentration ranged from 2.5 nM to 10 μM, the DMSO concentration was 0.1% v/v in all wells. After addition of cytochalasin b (5 μg×ml^-1) the plate was incubated for 5 min at 37° C. Neutrophils were then stimulated by addition of 4×10^-8 M FMLP and superoxide generation measured as superoxide dismutase inhibitable reduction of cytochrome C by monitoring the OD550 in a Thermomax microtitre plate spectrophotometer. Initial rates were calculated using a Softmax kinetic calculation programme. Blank wells contained 200 units of superoxide dismutase.
The inhibition of superoxide production was calculated as follows: [formula] Rx=Rate of the well containing the compound according to the invention. Ro=Rate in the control well.
Rb=Rate in the superoxide dismutase containing blank well.

FMLP-induced skin oedema = assay: Effect of intravenously administered compounds on the FMLP-induced skin oedema guinea pigs; assay type: in vivo; details: i.v., 1 mg/kg, guinea pig
Procedure: 5. Effect of intravenously administered compounds on the FMLP-induced skin oedema guinea pigs
Guinea pigs (600-800 g) were anaesthetized with pentobarbitone sodium (40 mg/kg, i.p.) and injected (i.v.) with a 0.5 ml mixture of pentamine sky blue (5% W/V) and ^125 I-HSA (1 μli/animal). 10 minutes later 3 intradermal injections of FMLP (10 μg/site), 1 injection of histamine (1 μg/site) and 1 injection of vehicle (100 μl of 0.2% DMSO V/V in Hanks Buffered salt solution) were made on the left hand side of the animal (preinjection sites). 5 minutes later the drug (1 ml/kg) or the vehicle (50% PEG 400 V/V in distilled water, […]) was administered (i.v.). 10 minutes later an identical pattern of interadermal injections was made on the opposite flank of the animal (post-injection sites). These responses were allowed-to develop for 15 minutes before the animal was sacrificed and a blood sample taken.
Skin sites and plasma samples were counted for 1 minute on a gamma counter an the degree of oedema calculated as μl plasma/skin site. Statistical analysis was done by a paired t-test on the mean of the 3 preinjection site values of μl plasma obtained for FMLP/animal. The percentage inhibition of drug or vehicle was calculated as follow

SMILES	IC50 (human PMN)	inhibition at 10 µM (human PMN)	% inhibition (FMLP-induced skin oedema)
CCOC(=O)C(=O)Nc1ccc2c(CCC(=O)OC)c(C(=O)c3ccncc3)oc2c1 [Example 344]	0.2 µM	81%	
CCOC(=O)C(=O)Nc1ccc2c(CCC(=O)OC)c(C(=O)c3ccc(C)cc3)oc2c1 [Example 2]			47%
CCOC(=O)C(=O)Nc1ccc2c(C)c(C(=O)c3ccc(C)cc3)oc2c1 [Example 6]	0.11 µM	67%	

More lines, main results first:

IC50 (human PMN)	SMILES	inhibition at 10 µM (human PMN)	% inhibition (FMLP-induced skin oedema)
0.17 µM	COC(=O)CCc1c(C(=O)c2ccc(Cl)cc2)oc2cc(NC(=O)C(=O)OC)ccc12 [Example 1, 3-[2-(4-Chlorobenzoyl)-6-(2-methoxy-2-oxo-acetamido)-3-benzofuranyl]propanoic acid, methylester]	62%	
0.9 µM	CCOC(=O)C(=O)Nc1ccc2c(CCC(=O)OC)c(C(=O)c3ccc(Cl)cc3)oc2c1 [Example 7]	86%	
